Columns and labels:
[1] = test system: synthesis of LTB4 by rat glycogen-elicited polymorphonuclear leukocytes (PMN); test: Inhibition of LTB4 synthesis by rat glycogen-elicited polymorphonuclear leukocytes (PMN); format: cell-based, rat (female Wistar); settings: Leukocyte, A23187-stimulated rat PMN
[2] = test system: TPA-induced mouse ear edema; test: TPA-induced murine ear edema test; format: in vivo, mouse (Swiss Webster); settings: 1 mg/ear, 30 min after TPA, measured 4 h after TPA
[3] = test system: rat carrageenan paw edema; test: Rat carrageenan paw edema; format: in vivo, rat (Sprague-Dawley); settings: at 50 mg/kg (peroral), 1 h prior to carrageenan; 3 h
Description: The compounds in the scope of the invention are further tested in the rat carrageenan paw edema to determine their ability to inhibit the acute inflammatory response.
[…] male Sprague-Dawley rats, in groups of 6 animals are injected subcutaneously in the right paw with 0.1 ml of 1% carrageenan at zero time. Mercury plethysmographic readings (ml) of the paw are made at zero time and 3 hours later. Test compounds are suspended or dissolved in 0.5% methylcellulose and given perorally 1 hour prior to carrageenan administration.
The increase in paw volume (edema in ml.) produced by the carrageenan is measured. Paw edema is calculated (3 hour volume minus zero time volume), and percent inhibition of edema is determined. Unpaired Student's t-test is used to determine statistical significance.

[4] = test system: oxazolone-induced contact hypersensitivity in the mouse ear; test: Oxazolone-induced contact hypersensitivity in the mouse ear; format: in vivo, mouse (Swiss Webster); settings: dosed at 1 mg/ear
Description: The assay of this Example measures the ability of the compounds in the scope of the invention to inhibit oxazolone-induced contact hypersensitivity in the mouse ear.
Female, Swiss Webster mice (8 weeks old) are placed into groups of 6 and the abdominal area of each is shaved. The mice are sensitized to oxazolone (4-ethoxymethylene-2-phenyl-oxazol-5-one) by applying 100 μl of a 2% solution in 95% alcohol directly onto the shaved abdomen using an automatic pipette and rubbing the residual oxazolone into the skin with a round wooden stick. Six days after sensitization each mouse is challenged by applying 20 μl of a 2% oxazolone solution in 95% alcohol to the right ear (10 μl on each side) and 20 μl of alcohol alone to the left ear. Compounds for topical applications are prepared in acetone and administered to the right ear 30 min after challenge or 30 min prior to and 5 h after challenge; acetone (vehicle) is applied to the left ear. Compounds for oral administration are suspended in 0.5 ml of 0.5% methyl cellulose and given ten min prior to challenge. Ear thickness of both ears is measured in mm×10^-2 at 24 and 48 h after challenge using an Oditest caliper. Edema is calculated by subtracting the left ear thickness from the right ear thickness. Drug effects are determined by calculating the percentage change from control for each time period.

COC(=O)C1(C(=O)CCCCOc2ccc(Cl)cc2)CO1 (stereo not shown) [Example 6A, 2-[5-(4-Chlorophenoxy)-1-oxopentyl]-2-oxiranecarboxylic acid methyl ester]
inhibition at 10 µM [1]: 11%
Mouse Ear Edema Assay, % Change from Control, TOPICAL, TPA [2]: -42%
% Inhibition of paw edema [3]: 50%
% Inhibition (oxazolone contact hypersensitivity) [4]: 34.3%

From patent US4788304A, “Phospholipase A2 inhibitors” (American Home Products Corporation, priority 1987, dated 1988)
